How the values were obtained:
Assay type in all cases: binding
CCR7 = molecular target: T1, CCR7 (Homo sapiens, UniProt P32248); experiment: NanoBRET screen HiBiT-CCR7 in HEK293; details: CCR7
T1 construct: purchased Promega (in-house HiBiT-GPCR construct library, NanoBRET)
T1 sequence (P32248 25-378): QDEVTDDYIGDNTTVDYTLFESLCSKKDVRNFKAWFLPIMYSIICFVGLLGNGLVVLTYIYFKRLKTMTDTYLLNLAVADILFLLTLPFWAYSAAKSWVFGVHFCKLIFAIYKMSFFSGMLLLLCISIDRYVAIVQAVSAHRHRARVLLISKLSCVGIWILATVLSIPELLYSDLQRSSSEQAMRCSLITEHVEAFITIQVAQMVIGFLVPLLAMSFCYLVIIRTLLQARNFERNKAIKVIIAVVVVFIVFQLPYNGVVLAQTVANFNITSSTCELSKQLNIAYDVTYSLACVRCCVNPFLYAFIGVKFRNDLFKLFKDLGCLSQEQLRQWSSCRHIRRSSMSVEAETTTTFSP
Protocol: (§1) Each tracer candidate was screened across the entire library of HiBiT-GPCR constructs using NanoBRET as the detection modality. As depicted in Figure 4A, the specificity of interactions was evaluated through decrease in BRET due to competitive displacement of a bound tracer by excess parental compound. Each tracer was analyzed for binding to each HiBiT-GPCR fusion in the absence and in the presence of competing parental compound. Briefly, HEK293 cells were transfected with HiBiT-GPCR constructs diluted into promoterless DNA to reduce expression and maximize translocation to the cell surface. Each tracer candidate was then screened at concentrations of 1 μM and 0.1 μM across cells expressing these fusions. Cells were treated for 1.5 h with tracer either alone or in the presence of 20 μM competing parental compound (i.e., control). BRET was measured upon addition of purified LgBiT and subsequent complementation with HiBiT genetically fused to a GPCR. The specificity of interactions was assessed through a decrease in BRET signal due to competitive displacement of the bound tracer. To further gauge the robustness of these interactions, the fold response over the control (i.e., BRETtracer/BRETcontrol) was calculated. We chose a 1.5-fold response, which translates to ≥7-fold signal over noise as the minimal threshold required to score an interaction as positive. […]. Below we highlight the screening results obtained for our exemplary fluorescent tracers based on Clozapine, Amitriptyline and AZD1283.
(§2) HiBiT-GPCR DNA constructs were diluted in 10 mM Tris pH 8 to a final concentration of 0.01 μg/μL, arrayed in 96-well plates and stored at −20 °C. For transfection, HEK293 cells were suspended in Opti-MEM (without phenol red) supplemented with 2% fetal bovine serum (Seradigm) and 100 units/mL penicillin–streptomycin (Gibco) at a final concentration of 220,000 cells/mL and dispensed into white 96-well plates at 90 μL/well. Subsequent transfections and screens were carried using an Agilent Bravo Automated Liquid Handling Platform. First, the 96-well HiBiT DNA arrays were diluted 25-fold in Opti-MEM (without serum or phenol red) to a final concentration of 0.0004 μg/μL and 20 μL of the diluted DNAs were transferred into new 96-well plates. Next, promoterless carrier DNA (1 μg/μL) was diluted 25-fold (0.04 μg/μL) and then dispensed into the diluted arrays at 20 μL/well. Following brief mixing, Viafect transfection reagent (Promega) diluted 16-fold into Opti-MEM was dispensed into the plates at 40 μL/well. After mixing by pipetting, plates were incubated for 10 min on the pipetting station deck. The DNA-transfection reagent complexes were then added to plates containing cells. To facilitate the screen, 10 μL of DNA-transfection reagent complexes were added in duplicates to the top 4 and bottom 4 rows, resulting in two identical 48-well arrays per plate. Plates with transfected cells were incubated for 18–20 h at 37 °C/5% CO2. A screen of each tracer across the entire library using two different concentrations requires duplicate plates of transfected cells. Depending on the number of tracers being screened, transfections can be scaled up using the same ratios. The next day, for each tracer, four 20× screening solutions in tracer dilution buffer (Promega) were prepared: two duplicates at final concentration of 20 μM and two duplicates at a final concentration of 2 μM. A competing unmodified compound was added to one of each duplicate at a final concentration of 400 μM. The four resulting solutions were diluted 4-fold in Opti-MEM without serum or phenol red to generate 5× solutions (5 µM and 0.5 µM tracer +/− 100 μM competing compound). To screen the library, a BioTek MultiFlo FX liquid dispenser was used to dispense 22.5 µL of tracer solution to the top 4 rows and 22.5 µL tracer + competing compound solution to the 4 bottom rows. Plates were briefly mixed on an orbital shaker and incubated for 1.5 h at room temperature. […]

GRPR = molecular target: T2, GRPR (Homo sapiens, UniProt P30550); experiment: NanoBRET screen HiBiT-GRPR in HEK293; details: GRPR
T2 construct: purchased Promega (in-house HiBiT-GPCR construct library, NanoBRET)
Protocol: as §1, §2

SSTR5 = molecular target: T3, SSTR5 (Homo sapiens, UniProt P35346); experiment: NanoBRET screen HiBiT-SSTR5 in HEK293; details: SSTR5
T3 construct: purchased Promega (in-house HiBiT-GPCR construct library, NanoBRET)
Protocol: as §1, §2

T3 sequence (P35346 whole entry): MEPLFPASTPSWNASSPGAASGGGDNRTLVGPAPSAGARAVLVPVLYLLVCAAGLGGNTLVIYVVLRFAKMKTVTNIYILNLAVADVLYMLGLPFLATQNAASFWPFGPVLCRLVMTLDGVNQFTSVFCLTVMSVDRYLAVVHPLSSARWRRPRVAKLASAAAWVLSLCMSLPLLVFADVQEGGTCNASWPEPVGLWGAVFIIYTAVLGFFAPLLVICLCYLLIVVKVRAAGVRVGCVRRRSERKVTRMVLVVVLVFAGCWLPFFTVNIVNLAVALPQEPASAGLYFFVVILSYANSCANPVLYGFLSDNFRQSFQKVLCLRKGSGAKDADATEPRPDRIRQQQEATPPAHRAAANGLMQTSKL
T2 sequence (P30550 whole entry): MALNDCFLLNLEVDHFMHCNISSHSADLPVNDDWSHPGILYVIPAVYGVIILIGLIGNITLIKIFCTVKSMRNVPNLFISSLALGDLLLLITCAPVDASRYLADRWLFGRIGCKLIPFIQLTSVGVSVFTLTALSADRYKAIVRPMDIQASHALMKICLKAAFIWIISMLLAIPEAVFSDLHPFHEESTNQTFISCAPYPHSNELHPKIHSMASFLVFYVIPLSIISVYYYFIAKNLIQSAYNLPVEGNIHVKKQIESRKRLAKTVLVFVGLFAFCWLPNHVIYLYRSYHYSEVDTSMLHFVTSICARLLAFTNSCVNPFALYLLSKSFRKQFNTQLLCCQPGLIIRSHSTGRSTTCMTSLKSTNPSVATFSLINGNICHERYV

| Compound | NanoBRET Fold Response (CCR7; tracer 0.1μM) | NanoBRET Fold Response (CCR7; tracer 1μM) | NanoBRET Fold Response (GRPR; tracer 0.1μM) | NanoBRET Fold Response (GRPR; tracer 1μM) | NanoBRET Fold Response (SSTR5; tracer 0.1μM) | NanoBRET Fold Response (SSTR5; tracer 1μM) |
| --- | --- | --- | --- | --- | --- | --- |
| O=C(CCc1ccc2n1[B-](F)(F)[N+]1=C(c3ccc[nH]3)C=CC1=C2)NCCOCCOCCNC(=O)OCCOCCN1CCN(C2=Nc3ccccc3Sc3ccccc32)CC1 [Quetiapine-a-2-NB590] | 1.03 | 1.01 | 0.66 | 0.84 | 1.03 | 0.83 |
| Cc1nc2n(c(=O)c1CCN1CCC(c3noc4cc(F)ccc34)CC1)CCCC2OC(=O)NCCOCCOCCOCCOCCNC(=O)CCc1ccc2n1[B-](F)(F)[N+]1=C(c3ccc[nH]3)C=CC1=C2 (stereo not drawn) [Risperidone-2-NB590] | 1.00 | 1.04 | 0.96 | 0.91 | 1.01 | 1.02 |
| CC(C)N(CC[C@H](c1ccccc1)c1cc(CCNC(=O)CCOCCOCCOCCOCCNC(=O)CCc2ccc3n2[B-](F)(F)[N+]2=C(c4ccc[nH]4)C=CC2=C3)ccc1O)C(C)C [Tolterodine-2-NB590] | 1.26 | 0.88 | 0.89 | 0.91 | 0.93 | 1.04 |
| CC(C)N(CC[C@H](c1ccccc1)c1cc(CCNC(=O)c2ccc(CNC(=O)CCc3ccc4n3[B-](F)(F)[N+]3=C(c5ccc[nH]5)C=CC3=C4)cc2)ccc1O)C(C)C [Tolterodine-BZ-NB590] | 1.00 | 1.01 | 0.81 | 0.99 | 1.08 | 1.04 |
| CCCn1c(=O)c2[nH]c(-c3ccc(OCC(=O)NCCNC(=O)CCOCCNC(=O)c4ccc(CNC(=O)CCc5ccc6n5[B-](F)(F)[N+]5=C(c7ccc[nH]7)C=CC5=C6)cc4)cc3)nc2n(CCC)c1=O [XAC-3-NB590] | 0.99 | 1.04 | 1.24 | 1.01 | 0.99 | 1.01 |

— publication PMC8151276, “An Integrated Approach toward NanoBRET Tracers for Analysis of GPCR Ligand Engagement” (Molecules, 2021)
